Assay results published in patent US8247211B2, “Glycopeptide antibiotics” (American Cyanamid Company, priority 2001, dated 2012).
In brackets after ≈: the same amount, converted by molar mass.

Columns and labels:
Experiment in all cases: In vitro antibacterial evaluation: minimum inhibitory concentration (MIC), broth dilution method
Format in all cases: cell-based
Escherichia coli [1] = test system: Escherichia coli
Escherichia coli [2] = test system: Escherichia coli; remark: listed apart in the source
Method in brief: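 Broth dilution per NCCLS M7-A2 in Muller-Hinton II […], inoculum 5×10^5 CFU/mL, antibiotic tested over 64-0.06 μg/mL. MIC is taken as the lowest concentration that inhibits growth. Panel includes recent clinical isolates resistant to methicillin, penicillin and/or vancomycin.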

Staphylococcus sp. = settings: 18 hours at 35° C.
Method in brief: (§1)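 First, organisms are seeded at 5×10^5 CFU/mL into Muller-Hinton II […]. Next, antibiotic is applied across 64-0.06 μg/mL by broth dilution (NCCLS M7-A2). Finally, the lowest inhibitory concentration is recorded as MIC.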

Streptococcus sp. = settings: 18 hours at 35° C.
Method in brief: as §1

Enterococcus sp. = test system: Enterococcus sp.
Method in brief: as §1

[3] = Staphylococcus aureus (ATCC 29213)
[4] = Staphylococcus aureus (GC 1131)
[5] = Staphylococcus aureus (GC 4541)
[6] = Staphylococcus aureus (GC 4542)
[7] = Staphylococcus aureus (GC 4544)
[8] = Staphylococcus aureus (GC 4545)
[9] = Streptococcus agalactiae (GC 4564)
[10] = Enterococcus faecalis (ATCC 29212)
[11] = Enterococcus faecalis (GC 2242), 18 hours at 35° C.
[12] = Enterococcus faecalis (GC 4552), 18 hours at 35° C.
[13] = Enterococcus faecalis (GC 4553)
[14] = Enterococcus faecalis (GC 4554)

α-O-[(Benzylamino)carbonyl]-cyclo[glycyl-β-methylphenylalanyl-O-(4-O-hexopyranosylhexopyranosyl)tyrosyl-3(2-iminoimidazolidin-4-yl)seryl-3-(3-hexopyranosyl-2-iminoimidazolidin-4-yl)serylseryl] [Example 257]
MIC Escherichia coli (ATCC 25922) (Escherichia coli [1]): >0.5 µg/mL | MIC Escherichia coli (GC 4559) (Escherichia coli [2]): >0.5 µg/mL | MIC Escherichia coli (GC 4560) (Escherichia coli [2]): 0.5 µg/mL | MIC Coagulase Negative Staphylococcus (GC 4547) (Staphylococcus sp.): 2 µg/mL | MIC Coagulase Negative Staphylococcus (GC 4548) (Staphylococcus sp.): 2 µg/mL | MIC Coagulase Negative Staphylococcus (GC 4549) (Staphylococcus sp.): 2 µg/mL | MIC Coagulase Negative Staphylococcus (GC 4551) (Staphylococcus sp.): 8 µg/mL | MIC Coagulase Negative Staphylococcus (GC 6257) (Staphylococcus sp.; Coagulase Negative Staphylococcus (GC 6257)): 1 µg/mL | MIC Staphylococcus aureus (ATCC 29213) (Staphylococcus sp.; [3]): 0.5 µg/mL | MIC Staphylococcus aureus (GC 1131) (Staphylococcus sp.; [4]): 0.5 µg/mL | MIC Staphylococcus aureus (GC 3051) (Staphylococcus sp.; Staphylococcus aureus (GC 3051)): 0.5 µg/mL | MIC Staphylococcus aureus (GC 3053) (Staphylococcus sp.; Staphylococcus aureus (GC 3053)): 0.5 µg/mL | MIC Staphylococcus aureus (GC 4541) (Staphylococcus sp.; [5]): 0.5 µg/mL | MIC Staphylococcus aureus (GC 4542) (Staphylococcus sp.; [6]): 0.5 µg/mL | MIC Staphylococcus aureus (GC 4544) (Staphylococcus sp.; [7]): 0.5 µg/mL | MIC Staphylococcus aureus (GC 4545) (Staphylococcus sp.; [8]): 0.5 µg/mL | MIC Staphylococcus aureus-SMITH (GC 4543) (Staphylococcus sp.): 0.5 µg/mL | MIC Staphylococcus haemolyticus (GC 4546) (Staphylococcus sp.): 2 µg/mL | MIC Staphylococcus aureus (ATCC 29213) (Staphylococcus sp.; broth dilution, strain ATCC 29213): 0.5 µg/mL | MIC Staphylococcus aureus (GC 1131) (Staphylococcus sp.; broth dilution, strain GC 1131): 0.5 µg/mL | MIC Staphylococcus aureus (GC 3051) (Staphylococcus sp.; broth dilution, strain GC 3051): 0.5 µg/mL | MIC Staphylococcus aureus (GC 3053) (Staphylococcus sp.; broth dilution, strain GC 3053): 0.5 µg/mL | MIC Staphylococcus aureus (GC 4541) (Staphylococcus sp.; broth dilution, strain GC 4541): 0.5 µg/mL | MIC Staphylococcus aureus (GC 4542) (Staphylococcus sp.; broth dilution, strain GC 4542): 0.5 µg/mL | MIC Staphylococcus aureus (GC 4544) (Staphylococcus sp.; broth dilution, strain GC 4544): 0.5 µg/mL | MIC Staphylococcus aureus (GC 4545) (Staphylococcus sp.; broth dilution, strain GC 4545): 0.5 µg/mL | MIC Streptococcus agalactiae (GC 4564) (Streptococcus sp.; [9]): 2 µg/mL | MIC Streptococcus pneumoniae (ATCC 6301) (Streptococcus sp.; Streptococcus pneumoniae (ATCC 6301)): 0.25 µg/mL | MIC Streptococcus pneumoniae (GC 1894) (Streptococcus sp.; Streptococcus pneumoniae (GC 1894)): 0.25 µg/mL | MIC Streptococcus pneumoniae (GC 4565) (Streptococcus sp.; Streptococcus pneumoniae (GC 4565)): 1 µg/mL | MIC Streptococcus pyogenes (GC 4563) (Streptococcus sp.; Streptococcus pyogenes (GC 4563)): 0.12 µg/mL | MIC Streptococcus pneumoniae (ATCC 6301) (Streptococcus sp.; broth dilution, strain ATCC 6301): 0.25 µg/mL | MIC Streptococcus pneumoniae (GC 1894) (Streptococcus sp.; broth dilution, strain GC 1894): 0.25 µg/mL | MIC Streptococcus pyogenes (GC 4563) (Streptococcus sp.; broth dilution, strain GC 4563): 0.12 µg/mL | MIC Streptococcus agalactiae (GC 4564) (Streptococcus sp.; broth dilution, strain GC 4564): 2 µg/mL | MIC Streptococcus pneumoniae (GC 4565) (Streptococcus sp.; broth dilution, strain GC 4565): 1 µg/mL | MIC Enterococcus avium (GC 4558) (Enterococcus sp.; Enterococcus avium (GC 4558)): 0.5 µg/mL | MIC Enterococcus faecalis (ATCC 29212) (Enterococcus sp.; [10]): 0.5 µg/mL | MIC Enterococcus faecalis (GC 2242) (Enterococcus sp.; [11]): 0.5 µg/mL | MIC Enterococcus faecalis (GC 2691) (Enterococcus sp.; Enterococcus faecalis (GC 2691), 18 hours at 35° C.): 0.5 µg/mL | MIC Enterococcus faecalis (GC 3059) (Enterococcus sp.; Enterococcus faecalis (GC 3059), 18 hours at 35° C.): 0.5 µg/mL | MIC Enterococcus faecalis (GC 4552) (Enterococcus sp.; [12]): >0.5 µg/mL | MIC Enterococcus faecalis (GC 4553) (Enterococcus sp.; [13]): 0.5 µg/mL | MIC Enterococcus faecalis (GC 4554) (Enterococcus sp.; [14]): >0.5 µg/mL | MIC Enterococcus faecalis (GC 6189) (Enterococcus sp.; Enterococcus faecalis (GC 6189)): 0.5 µg/mL | MIC Enterococcus faecium (GC 2243) (Enterococcus sp.; Enterococcus faecium (GC 2243)): 16 µg/mL | MIC Enterococcus faecium (GC 4556) (Enterococcus sp.; Enterococcus faecium (GC 4556)): 16 µg/mL | MIC Enterococcus faecium (GC 4557) (Enterococcus sp.; Enterococcus faecium (GC 4557)): 2 µg/mL | MIC Enterococcus faecalis (ATCC 29212) (Enterococcus sp.; broth dilution, 18 hours at 35° C., strain ATCC 29212): 0.5 µg/mL | MIC Enterococcus faecalis (GC 2242) (Enterococcus sp.; broth dilution, 18 hours at 35° C., strain GC 2242): 0.5 µg/mL | MIC Enterococcus faecium (GC 2243) (Enterococcus sp.; broth dilution, 18 hours at 35° C., strain GC 2243): 16 µg/mL | MIC Enterococcus faecalis (GC 2691) (Enterococcus sp.; broth dilution, 18 hours at 35° C., strain GC 2691): 0.5 µg/mL | MIC Enterococcus faecalis (GC 3059) (Enterococcus sp.; broth dilution, 18 hours at 35° C., strain GC 3059): 0.5 µg/mL | MIC Enterococcus faecalis (GC 4552) (Enterococcus sp.; broth dilution, 18 hours at 35° C., strain GC 4552): >0.5 µg/mL | MIC Enterococcus faecalis (GC 4553) (Enterococcus sp.; broth dilution, 18 hours at 35° C., strain GC 4553): 0.5 µg/mL | MIC Enterococcus faecalis (GC 4554) (Enterococcus sp.; broth dilution, 18 hours at 35° C., strain GC 4554): >0.5 µg/mL | MIC Enterococcus faecium (GC 4556) (Enterococcus sp.; broth dilution, 18 hours at 35° C., strain GC 4556): 16 µg/mL | MIC Enterococcus faecium (GC 4557) (Enterococcus sp.; broth dilution, 18 hours at 35° C., strain GC 4557): 2 µg/mL | MIC Enterococcus avium (GC 4558) (Enterococcus sp.; broth dilution, 18 hours at 35° C., strain GC 4558): 0.5 µg/mL | MIC Enterococcus faecalis (GC 6189) (Enterococcus sp.; broth dilution, 18 hours at 35° C., strain GC 6189): 0.5 µg/mL

CC(C)CC(=O)OC1C(O)C(CO)OC(OC2C(CO)OC(Oc3ccc(CC4NC(=O)C(C(C)c5cccc(F)c5)NC(=O)CNC(=O)C(CO)NC(=O)C(C(O)C5CNC(=N)N5C5OC(CO)C(O)C(O)C5O)NC(=O)C(C(O)C5CNC(=N)N5)NC4=O)cc3)C(O)C2O)C1O (centres unmarked) [Example 264b]
MIC Escherichia coli (ATCC 25922) (Escherichia coli [1]): 64 µg/mL (≈ 45.8 µM) | MIC Escherichia coli (GC 4559) (Escherichia coli [2]): >64 µg/mL | MIC Escherichia coli (GC 4560) (Escherichia coli [2]): 4 µg/mL (≈ 2.86 µM) | MIC Coagulase Negative Staphylococcus (GC 4547) (Staphylococcus sp.): 4 µg/mL (≈ 2.86 µM) | MIC Coagulase Negative Staphylococcus (GC 4547) (Staphylococcus sp.; broth dilution): 4 µg/mL (≈ 2.86 µM) | MIC Coagulase Negative Staphylococcus (GC 4548) (Staphylococcus sp.): 4 µg/mL (≈ 2.86 µM) | MIC Coagulase Negative Staphylococcus (GC 4548) (Staphylococcus sp.; broth dilution): 4 µg/mL (≈ 2.86 µM) | MIC Coagulase Negative Staphylococcus (GC 4549) (Staphylococcus sp.): 4 µg/mL (≈ 2.86 µM) | MIC Coagulase Negative Staphylococcus (GC 4549) (Staphylococcus sp.; broth dilution): 4 µg/mL (≈ 2.86 µM) | MIC Coagulase Negative Staphylococcus (GC 4551) (Staphylococcus sp.): 8 µg/mL (≈ 5.72 µM) | MIC Coagulase Negative Staphylococcus (GC 4551) (Staphylococcus sp.; broth dilution): 8 µg/mL (≈ 5.72 µM) | MIC Staphylococcus aureus (ATCC 29213) (Staphylococcus sp.; [3]): 8 µg/mL (≈ 5.72 µM) | MIC Staphylococcus aureus (ATCC 29213) (Staphylococcus sp.; Staphylococcus aureus (ATCC 29213), broth dilution): 8 µg/mL (≈ 5.72 µM) | MIC Staphylococcus aureus (GC 1131) (Staphylococcus sp.; [4]): 8 µg/mL (≈ 5.72 µM) | MIC Staphylococcus aureus (GC 1131) (Staphylococcus sp.; Staphylococcus aureus (GC 1131), broth dilution): 8 µg/mL (≈ 5.72 µM) | MIC Staphylococcus aureus (GC 4541) (Staphylococcus sp.; [5]): 8 µg/mL (≈ 5.72 µM) | MIC Staphylococcus aureus (GC 4541) (Staphylococcus sp.; Staphylococcus aureus (GC 4541), broth dilution): 8 µg/mL (≈ 5.72 µM) | MIC Staphylococcus aureus (GC 4542) (Staphylococcus sp.; [6]): 8 µg/mL (≈ 5.72 µM) | MIC Staphylococcus aureus (GC 4542) (Staphylococcus sp.; Staphylococcus aureus (GC 4542), broth dilution): 8 µg/mL (≈ 5.72 µM) | MIC Staphylococcus aureus (GC 4544) (Staphylococcus sp.; [7]): 8 µg/mL (≈ 5.72 µM) | MIC Staphylococcus aureus (GC 4544) (Staphylococcus sp.; Staphylococcus aureus (GC 4544), broth dilution): 8 µg/mL (≈ 5.72 µM) | MIC Staphylococcus aureus (GC 4545) (Staphylococcus sp.; [8]): 4 µg/mL (≈ 2.86 µM) | MIC Staphylococcus aureus (GC 4545) (Staphylococcus sp.; Staphylococcus aureus (GC 4545), broth dilution): 4 µg/mL (≈ 2.86 µM) | MIC Staphylococcus aureus-SMITH (GC 4543) (Staphylococcus sp.): 8 µg/mL (≈ 5.72 µM) | MIC Staphylococcus aureus-SMITH (GC 4543) (Staphylococcus sp.; broth dilution): 8 µg/mL (≈ 5.72 µM) | MIC Staphylococcus haemolyticus (GC 4546) (Staphylococcus sp.): 4 µg/mL (≈ 2.86 µM) | MIC Staphylococcus haemolyticus (GC 4546) (Staphylococcus sp.; broth dilution): 4 µg/mL (≈ 2.86 µM) | MIC Streptococcus agalactiae (GC 4564) (Streptococcus sp.; [9]): 4 µg/mL (≈ 2.86 µM) | MIC Streptococcus pyogenes (ID-3187) (Streptococcus sp.; Streptococcus pyogenes (ID-3187)): 4 µg/mL (≈ 2.86 µM) | MIC Enterococcus avium (GC 4558) (Enterococcus sp.; Enterococcus avium (GC 4558)): 64 µg/mL (≈ 45.8 µM) | MIC Enterococcus faecalis (ATCC 29212) (Enterococcus sp.; [10]): 64 µg/mL (≈ 45.8 µM) | MIC Enterococcus faecalis (GC 2242) (Enterococcus sp.; [11]): 32 µg/mL (≈ 22.9 µM) | MIC Enterococcus faecalis (GC 4552) (Enterococcus sp.; [12]): 64 µg/mL (≈ 45.8 µM) | MIC Enterococcus faecalis (GC 4553) (Enterococcus sp.; [13]): 64 µg/mL (≈ 45.8 µM) | MIC Enterococcus faecalis (GC 4554) (Enterococcus sp.; [14]): 64 µg/mL (≈ 45.8 µM) | MIC Enterococcus faecium (GC 2243) (Enterococcus sp.; Enterococcus faecium (GC 2243)): 64 µg/mL (≈ 45.8 µM) | MIC Enterococcus faecium (GC 4556) (Enterococcus sp.; Enterococcus faecium (GC 4556)): 64 µg/mL (≈ 45.8 µM) | MIC Enterococcus faecium (GC 4557) (Enterococcus sp.; Enterococcus faecium (GC 4557)): 8 µg/mL (≈ 5.72 µM)
